Test results from patent publication US20260256792A1, “TREATMENT OF CHRONIC SPONTANEOUS URTICARIA BY ADMINISTERING (R)-2-[3-[4-AMINO-3-(2-FLUORO-4-PHENOXY-PHENYL)PYRAZOLO[3,4-D]PYRIMIDIN-1-YL]PIPERIDINE-1-CARBONYL]-4-METHYL-4-[4-(OXETAN-3-YL)PIPERAZIN-1-YL]PENT-2-ENENITRILE” (priority 2023, published 2026).

System: moderate-to-severe chronic spontaneous urticaria (CSU)
Experiment: Phase 2 CSU study: hives severity score over 7 days (HSS7)
Type: in vivo, human
Design: key to HSS7 Change from baseline, Median / HSS7, Median / HSS7, Max / HSS7 Change from baseline, Q1 / HSS7 Change from baseline, Q3 / HSS7 Change from baseline, Max: 7-day sum of daily hive scores, each 0 = none to 3 = >50 hives
Details: 400 mg BID
From the text: The study comprises a 12 week, randomized, double-blind, placebo-controlled, multi-center, dose-ranging efficacy and safety phase, followed by a 40 week open label extension (OLE) phase (see FIG. 1).
The study consists of three phases and an optional OLE phase.
The UAS is a validated PRO measure. The daily UAS is the sum of the daily Hive Severity Score (HSS, ranging from 0=None to 3=more than 50 hives) and the daily Itch Severity Score (ISS, ranging from 0=None to 3=intense), the 2 key urticaria signs and symptoms which are wheals and itch. The daily UAS scores range from 0 to 6 point/day. Daily UAS scores are summed over 7-day period to create the UAS7, ranging from 0 to 42, and are composed of the HSS7 and ISS7 components. […] Patients were to complete the UAS using the e-diary. The e-diary was to be used once daily on the same time of each day recording of participant's answers to the urticaria activity score over 7 days (UAS7) questionnaire. For participants who entered the OLE phase, their answers to the UAS7 questionnaire were also to be collected from Week 20 to Week24 and from Week 48 to Week 52.
The following secondary endpoints were to be analyzed using the same approach as for the primary endpoint: • Change from baseline in UAS7 at Week 4 • Change from baseline in UAS7 at Week 12 (for US and US reference countries) • Change from baseline in ISS7 at Week 12 (except US and US reference countries) • Change from baseline in HSS7 at Week 12

[1] = Omalizumab-Naïve Population, last block under Week 12, double-blind period, WOCF imputation
[2] = Week 1, Omalizumab-Naïve Population
[3] = Week 2, Omalizumab-Naïve Population
[4] = Week 3, Omalizumab-Naïve Population
[5] = Week 4, Omalizumab-Naïve Population
[6] = Week 5, Omalizumab-Naïve Population
[7] = Week 6, Omalizumab-Naïve Population
[8] = Week 7, Omalizumab-Naïve Population
[9] = Week 8, Omalizumab-Naïve Population

`CC(C)(C=C(C#N)C(=O)N1CCC[C@@H](n2nc(-c3ccc(Oc4ccccc4)cc3F)c3c(N)ncnc32)C1)N1CCN(C2COC2)CC1` [rilzabrutinib, (R)-2-[3-[4-amino-3-(2-fluoro-4-phenoxy-phenyl)pyrazolo[3,4-d]pyrimidin-1-yl]piperidine-1-carbonyl]-4-methyl-4-[4-(oxetan-3-yl)piperazin-1-yl]pent-2-enenitrile] was tested, and the “HSS7, Max” value [1] was 21.0, the “HSS7, Min” value [1] was 0.0 and the “HSS7 Change from baseline, Max” value [1] was 0.0. For the same compound, the “HSS7 Change from baseline, Mean (SD)” value [1] was −7.80 (6.87), the “HSS7 Change from baseline, Median” value [1] was −5.00 and the “HSS7 Change from baseline, Min” value [1] was −16.0. The “HSS7 Change from baseline, Q1” value [1] was −14.00, the “HSS7 Change from baseline, Q3” value [1] was −4.00 and the “HSS7 Percent change from baseline, Max” value [1] was 0.0%. For the same compound, the “HSS7 Percent change from baseline, Mean (SD)” value [1] was −53.67 (44.85) percent, the “HSS7 Percent change from baseline, Median” value [1] was −41.67% and the “HSS7 Percent change from baseline, Min” value [1] was −100.0%. The “HSS7 Percent change from baseline, Q1” value [1] was −100.00%, the “HSS7 Percent change from baseline, Q3” value [1] was −26.67% and the “HSS7 % Change difference for rilzabrutinib vs.placebo LS Mean (95% CI)” value (“HSS7 % Change difference … (95% CI)” for short) (Week 1, ITT Population) was −25.04 %. For the same compound, the “HSS7 % Change from baseline LS Mean (SE)” value (Week 1, ITT Population) was −33.74 (5.55) %, the “HSS7 Change difference for rilzabrutinib vs.placebo LS Mean (95% CI)” value (from here on “HSS7 Change difference … (95% CI)”) (Week 1, ITT Population) was −2.95 (−5.36, −0.55) and the “HSS7 Change from baseline LS Mean (SE)” value (Week 1, ITT Population) was −4.79 (0.75). The “HSS7 Postbaseline Mean (SD)” value (Week 1, ITT Population) was 9.32 (5.77), the “HSS7 % Change difference … (95% CI)” value [2] was −27.07 % and the “HSS7 % Change from baseline LS Mean (SE)” value [2] was −34.51 (5.97) %. The “HSS7 Change difference … (95% CI)” value [2] was −3.10 (−5.66, −0.53), the “HSS7 Change from baseline LS Mean (SE)” value [2] was −4.73 (0.80) and the “HSS7 Postbaseline Mean (SD)” value [2] was 9.26 (5.76). For the same compound, the “HSS7 Postbaseline Mean (SD)” value (Week 1, Omalizumab-Naïve Population with Outlier Removed from Analysis) was 9.26 (5.76), the “HSS7 % Change difference … (95% CI)” value (Week 2, ITT Population) was −18.39 % and the “HSS7 % Change from baseline LS Mean (SE)” value (Week 2, ITT Population) was −34.94 (5.70) %. For the same compound, the “HSS7 Change difference … (95% CI)” value (Week 2, ITT Population) was −2.23 (−4.31, −0.14), the “HSS7 Change from baseline LS Mean (SE)” value (Week 2, ITT Population) was −5.15 (0.79) and the “HSS7 Postbaseline Mean (SD)” value (Week 2, ITT Population) was 9.11 (5.66). The “HSS7 % Change difference … (95% CI)” value [3] was −19.53 %, the “HSS7 % Change from baseline LS Mean (SE)” value [3] was −34.80 (6.07) % and the “HSS7 Postbaseline Mean (SD)” value [3] was 9.27 (5.49). For the same compound, the “HSS7 Postbaseline Mean (SD)” value (Week 2, Omalizumab-Naïve Population with Outlier Removed from Analysis) was 9.27 (5.49), the “HSS7 % Change difference … (95% CI)” value (Week 3, ITT Population) was −19.09 % and the “HSS7 % Change from baseline LS Mean (SE)” value (Week 3, ITT Population) was −38.24 (5.88) %. For the same compound, the “HSS7 Change difference … (95% CI)” value (Week 3, ITT Population) was −2.14 (−4.31, 0.04), the “HSS7 Change from baseline LS Mean (SE)” value (Week 3, ITT Population) was −5.64 (0.82) and the “HSS7 Postbaseline Mean (SD)” value (Week 3, ITT Population) was 8.42 (6.15). The “HSS7 % Change difference … (95% CI)” value [4] was −20.68 %, the “HSS7 % Change from baseline LS Mean (SE)” value [4] was −38.38 (6.33) % and the “HSS7 Postbaseline Mean (SD)” value [4] was 8.55 (6.09). For the same compound, the “HSS7 Postbaseline Mean (SD)” value (Week 3, Omalizumab-Naïve Population with Outlier Removed from Analysis) was 8.55 (6.09), the “HSS7 % Change difference … (95% CI)” value (Week 4, ITT population) was −24.40 % and the “HSS7 % Change from baseline LS Mean (SE)” value (Week 4, ITT population) was −43.10 (6.02) %. For the same compound, the “HSS7 Change difference … (95% CI)” value (Week 4, ITT population) was −2.71 (−4.92, −0.50), the “HSS7 Change from baseline LS Mean (SE)” value (Week 4, ITT population) was −6.16 (0.83) and the “HSS7 Postbaseline Mean (SD)” value (Week 4, ITT population) was 7.50 (6.18). The “HSS7 % Change difference … (95% CI)” value [5] was −27.23 %, the “HSS7 % Change from baseline LS Mean (SE)” value [5] was −43.11 (6.45) % and the “HSS7 Postbaseline Mean (SD)” value [5] was 7.60 (6.00). For the same compound, the “HSS7 Postbaseline Mean (SD)” value (Week 4, Omalizumab-Naïve Population with Outlier Removed from Analysis) was 7.60 (6.00), the “HSS7 % Change difference … (95% CI)” value (Week 5, ITT Population) was −12.25 % and the “HSS7 % Change from baseline LS Mean (SE)” value (Week 5, ITT Population) was −41.40 (5.88) %. For the same compound, the “HSS7 Change difference … (95% CI)” value (Week 5, ITT Population) was −1.29 (−3.57, 0.99), the “HSS7 Change from baseline LS Mean (SE)” value (Week 5, ITT Population) was −5.93 (0.86) and the “HSS7 Postbaseline Mean (SD)” value (Week 5, ITT Population) was 7.91 (6.94). The “HSS7 % Change difference … (95% CI)” value [6] was −9.42 (−26.13, 7.29) %, the “HSS7 % Change from baseline LS Mean (SE)” value [6] was −39.98 (6.23) % and the “HSS7 Postbaseline Mean (SD)” value [6] was 8.34 (6.75). For the same compound, the “HSS7 Postbaseline Mean (SD)” value (Week 5, Omalizumab-Naïve Population with Outlier Removed from Analysis) was 8.34 (6.75), the “HSS7 % Change difference … (95% CI)” value (Week 6, ITT Population) was −15.72 % and the “HSS7 % Change from baseline LS Mean (SE)” value (Week 6, ITT Population) was −39.79 (6.64) %. For the same compound, the “HSS7 Change difference … (95% CI)” value (Week 6, ITT Population) was −1.64 (−4.07, 0.79), the “HSS7 Change from baseline LS Mean (SE)” value (Week 6, ITT Population) was −5.90 (0.92) and the “HSS7 Postbaseline Mean (SD)” value (Week 6, ITT Population) was 7.89 (6.65). The “HSS7 % Change difference … (95% CI)” value [7] was −15.99 %, the “HSS7 % Change from baseline LS Mean (SE)” value [7] was −40.02 (7.13) % and the “HSS7 Postbaseline Mean (SD)” value [7] was 8.17 (6.62). The “HSS7 Postbaseline Mean (SD)” value (Week 6, Omalizumab-Naïve Population with Outlier Removed from Analysis) was 8.17 (6.62), the “HSS7 % Change difference … (95% CI)” value (Week 7, ITT Population) was −22.31 % and the “HSS7 % Change from baseline LS Mean (SE)” value (Week 7, ITT Population) was −46.27 (6.01) %. The “HSS7 Change difference … (95% CI)” value (Week 7, ITT Population) was −2.71 (−4.98, −0.44), the “HSS7 Change from baseline LS Mean (SE)” value (Week 7, ITT Population) was −6.79 (0.86) and the “HSS7 Postbaseline Mean (SD)” value (Week 7, ITT Population) was 7.01 (6.25). For the same compound, the “HSS7 % Change difference … (95% CI)” value [8] was −19.88 %, the “HSS7 % Change from baseline LS Mean (SE)” value [8] was −45.57 (6.48) % and the “HSS7 Postbaseline Mean (SD)” value [8] was 7.34 (6.12). For the same compound, the “HSS7 Postbaseline Mean (SD)” value (Week 7, Omalizumab-Naïve Population with Outlier Removed from Analysis) was 7.34 (6.12), the “HSS7 % Change difference … (95% CI)” value (Week 8, ITT population) was −23.44 % and the “HSS7 % Change from baseline LS Mean (SE)” value (Week 8, ITT population) was −52.52 (6.33) %. The “HSS7 Change difference … (95% CI)” value (Week 8, ITT population) was −2.74 (−5.15, −0.33), the “HSS7 Change from baseline LS Mean (SE)” value (Week 8, ITT population) was −7.49 (0.91) and the “HSS7 Postbaseline Mean (SD)” value (Week 8, ITT population) was 6.41 (6.73). For the same compound, the “HSS7 % Change difference … (95% CI)” value [9] was −25.21 %, the “HSS7 % Change from baseline LS Mean (SE)” value [9] was −53.21 (6.86) % and the “HSS7 Postbaseline Mean (SD)” value [9] was 6.66 (6.70). For the same compound, the “HSS7 Postbaseline Mean (SD)” value (Week 8, Omalizumab-Naïve Population with Outlier Removed from Analysis) was 6.66 (6.70), the “HSS7 % Change difference … (95% CI)” value (Week 9, ITT Population) was −27.61 % and the “HSS7 % Change from baseline LS Mean (SE)” value (Week 9, ITT Population) was −51.53 (6.66) %. The “HSS7 Change difference … (95% CI)” value (Week 9, ITT Population) was −3.04 (−5.57, −0.51), the “HSS7 Change from baseline LS Mean (SE)” value (Week 9, ITT Population) was −7.16 (0.96) and the “HSS7 Postbaseline Mean (SD)” value (Week 9, ITT Population) was 6.69 (7.49). The “HSS7 Postbaseline Mean (SD)” value (Week 9, Omalizumab-Naïve Population) was 7.01 (7.58), the “HSS7 Postbaseline Mean (SD)” value (Week 9, Omalizumab-Naïve Population with Outlier Removed from Analysis) was 7.01 (7.58) and the “HSS7 % Change difference … (95% CI)” value (Week 10, ITT Population) was −24.54 %. For the same compound, the “HSS7 % Change from baseline LS Mean (SE)” value (Week 10, ITT Population) was −52.53 (6.82) %, the “HSS7 Change difference … (95% CI)” value (Week 10, ITT Population) was −2.72 (−5.32, −0.11) and the “HSS7 Change from baseline LS Mean (SE)” value (Week 10, ITT Population) was −7.32 (0.99). For the same compound, the “HSS7 Postbaseline Mean (SD)” value (Week 10, ITT Population) was 6.77 (7.18), the “HSS7 Postbaseline Mean (SD)” value (Week 10, Omalizumab-Naïve Population) was 7.05 (7.27) and the “HSS7 Postbaseline Mean (SD)” value (Week 10, Omalizumab-Naïve Population with Outlier Removed from Analysis) was 7.05 (7.27). The “HSS7 % Change difference … (95% CI)” value (Week 11, ITT Population) was −22.60 %.
